# According to patent publication US20050250801A1, “Method of treating cancer with azaspirane compositions” (priority 2003, published 2005):
# pIC50: −log10 of the molar value. Read-outs that look alike come from different tables or passages of the source.
# Key:
# Format in all cases: cell-based
# [1] = test system: CaCo-2 cells; experiment: Inhibition of proliferation of CaCo-2 cells (WST-1, Example 8); conditions: Homo sapiens, 12 hours
# Protocol: The effect of N,N,-diethyl-8,8-dipropyl-2-azaspiro[4,5]decane-2-propanamine dimaleate (Compound 1) and other analogs (structures shown in Table 7) on proliferation of CaCo-2, a human colon carcinoma cell line, were evaluated in the following manner. Cell proliferation was measured by WST-1 dye conversion to Formazan assay using a proliferation kit from BioVision, CA. The procedure used was essentially the same as described in the manufacture's instructions. Briefly, cells were grown for 7 days until they formed semi-confluent monolayers. On day 7, cells were trypsinized and re-suspended in 96-well plates at a concentration of approximately 50,000 cells/well. […] A solution of 10 μl of WST-1 dye per well was added and plates were read after 4 hours at 440 and 600 nm using an ELISA plate reader. The absorbance at 440-600 nm is directly proportion to the number of proliferating cells. All samples were measured in duplicate and results were expressed as an average of two determinations.
# [2] = test system: NCI-H23; experiment: NCI in vitro SRB assay, Non-Small Cell Lung Cancer; conditions: for CC50 / GI50: Homo sapiens
# Protocol: (§1) An in vitro assay which tested the ability of N,N,-diethyl-8,8-dipropyl-2-azaspiro[4,5]decane-2-propanamine dimaleate (Compound 1) to inhibit the growth of known cancer cell lines was performed by the National Cancer Institute in accordance with standard procedures. See: Lin, Z. X., Hoult, J. R., and Raman, A. Sulphorhodamine B assay for measuring proliferation of a pigmented melanocyte cell line and its application to the evaluation of crude drugs used in the treatment of vitiligo. J Ethnopharmacol. 66: 141-150, 1999. Briefly, selected tumor cell lines were cultured in media containing five different concentrations of Compound 1. After 48 hours of continuous exposure, a sulforhodamine B (SRB) assay was used to estimate cell viability or growth via optical measurements.
# (§2) From the measurements, the following values were determined: 1) the concentration of Compound 1 at which a tumor cell growth inhibition of 50% (relative to control) occurs (GI50), 2) the concentration of Compound 1 at which no growth occurs (total growth inhibition, TGI), and 3) the concentration of Compound 1 at which the […] (LC 50). […] FIG. 6 illustrates, graphically, tumor cell growth as a function of Compound 1 concentration of the scanned tumor cell lines.
# [3] = test system: NCI-H322M; experiment: NCI in vitro SRB assay, Non-Small Cell Lung Cancer; conditions: for GI50 / CC50: Homo sapiens
# Protocol: as §1, §2
# [4] = test system: ACHN; experiment: NCI in vitro SRB assay, Renal Cancer; conditions: for GI50: Homo sapiens
# Protocol: as §1, §2
# [5] = test system: SN12C; experiment: NCI in vitro SRB assay, Renal Cancer; conditions: for GI50 / CC50: Homo sapiens
# Protocol: as §1, §2
# [6] = test system: TK-10; experiment: NCI in vitro SRB assay, Renal Cancer; conditions: for CC50 / GI50: Homo sapiens
# Protocol: as §1, §2
# [7] = test system: UO-31; experiment: NCI in vitro SRB assay, Renal Cancer; conditions: for CC50 / GI50: Homo sapiens
# Protocol: as §1, §2
# [8] = NCI-H23, Log10 conc -4.0 Moles/L
# [9] = NCI-H23, Log10 conc -5.0 Moles/L
# [10] = NCI-H23, Log10 conc -6.0 Moles/L
# [11] = NCI-H23, Log10 conc -7.0 Moles/L
# [12] = NCI-H23, Log10 conc -8.0 Moles/L
# [13] = read-out: Log10 GI50 (converted)
# [14] = read-out: Log10 LC50 (converted)
smiles,measurement,setting,value
"CCCC1(CCC)CCC2(CCN(CCCN(CC)CC)C2)CC1.O=C(O)/C=C\C(=O)O.O=C(O)/C=C\C(=O)O [Compound 1, N,N,-diethyl-8,8-dipropyl-2-azaspiro[4,5]decane-2-propanamine dimaleate]",inhibition at 5 µM,"[1]; 5 μM, read-out: % Inhibition of Proliferation at 5 μM Compound",85%
same,pIC50,[1],~5.60
same,CC50,"[2]; NCI-H23, read-out: LC50",6.32 µM
same,CC50,"[2]; NCI-H23, read-out: Log10 LC50 (converted)",6.31 µM
same,GI50,"[2]; NCI-H23, read-out: GI50",1960 nM
same,GI50,"[2]; NCI-H23, read-out: Log10 GI50 (converted)",1950 nM
same,Log10 TGI,[2]; NCI-H23,−5.45
same,TGI,[2]; NCI-H23,3.52 µM
same,Mean Optical Densities,[2]; [8],0.030
same,Percent Growth,[2]; [8],−92%
same,Mean Optical Densities,[2]; [9],0.040
same,Percent Growth,[2]; [9],−89%
same,Mean Optical Densities,[2]; [10],0.822
same,Percent Growth,[2]; [10],107%
same,Mean Optical Densities,[2]; [11],0.814
same,Percent Growth,[2]; [11],105%
same,Mean Optical Densities,[2]; [12],0.728
same,Percent Growth,[2]; [12],85%
same,Log10 TGI,[3],−5.64
same,TGI,[3],2.29 µM
same,GI50,[3]; read-out: GI50,890 nM
same,CC50,[3]; read-out: LC50,5.41 µM
same,GI50,[3]; [13],891 nM
same,CC50,[3]; [14],5.37 µM
same,Mean Optical Densities,[3]; Log10 conc -4.0 Moles/L,0.115
same,Percent Growth,[3]; Log10 conc -4.0 Moles/L,−84%
same,Mean Optical Densities,[3]; Log10 conc -5.0 Moles/L,0.100
same,Percent Growth,[3]; Log10 conc -5.0 Moles/L,−86%
same,Mean Optical Densities,[3]; Log10 conc -6.0 Moles/L,0.855
same,Percent Growth,[3]; Log10 conc -6.0 Moles/L,48%
same,Mean Optical Densities,[3]; Log10 conc -7.0 Moles/L,0.979
same,Percent Growth,[3]; Log10 conc -7.0 Moles/L,86%
same,Mean Optical Densities,[3]; Log10 conc -8.0 Moles/L,0.991
same,Percent Growth,[3]; Log10 conc -8.0 Moles/L,89%
same,Log10 TGI,[4],−5.55
same,TGI,[4],2.81 µM
same,GI50,[4]; read-out: GI50,1490 nM
same,GI50,[4]; [13],1480 nM
same,Mean Optical Densities,[4]; Log10 conc -4.0 Moles/L,−0.041
same,Percent Growth,[4]; Log10 conc -4.0 Moles/L,−100%
same,Mean Optical Densities,[4]; Log10 conc -5.0 Moles/L,−0.031
same,Percent Growth,[4]; Log10 conc -5.0 Moles/L,−100%
same,Mean Optical Densities,[4]; Log10 conc -6.0 Moles/L,0.705
same,Percent Growth,[4]; Log10 conc -6.0 Moles/L,81%
same,Mean Optical Densities,[4]; Log10 conc -7.0 Moles/L,0.711
same,Percent Growth,[4]; Log10 conc -7.0 Moles/L,83%
same,Mean Optical Densities,[4]; Log10 conc -8.0 Moles/L,0.721
same,Percent Growth,[4]; Log10 conc -8.0 Moles/L,85%
same,Log10 TGI,[5],−5.55
same,TGI,[5],2.82 µM
same,GI50,[5]; read-out: GI50,1290 nM
same,CC50,[5]; read-out: LC50,6.17 µM
same,GI50,[5]; [13],1290 nM
same,CC50,[5]; [14],6.17 µM
same,Mean Optical Densities,[5]; Log10 conc -4.0 Moles/L,0.036
same,Percent Growth,[5]; Log10 conc -4.0 Moles/L,−90%
same,Mean Optical Densities,[5]; Log10 conc -5.0 Moles/L,0.069
same,Percent Growth,[5]; Log10 conc -5.0 Moles/L,−81%
same,Mean Optical Densities,[5]; Log10 conc -6.0 Moles/L,0.668
same,Percent Growth,[5]; Log10 conc -6.0 Moles/L,66%
same,Mean Optical Densities,[5]; Log10 conc -7.0 Moles/L,0.701
same,Percent Growth,[5]; Log10 conc -7.0 Moles/L,73%
same,Mean Optical Densities,[5]; Log10 conc -8.0 Moles/L,0.717
same,Percent Growth,[5]; Log10 conc -8.0 Moles/L,76%
same,CC50,"[6]; TK-10, read-out: LC50",5.52 µM
same,CC50,"[6]; TK-10, read-out: Log10 LC50 (converted)",5.5 µM
same,GI50,"[6]; TK-10, read-out: GI50",1270 nM
same,GI50,"[6]; TK-10, read-out: Log10 GI50 (converted)",1260 nM
same,Log10 TGI,[6]; TK-10,−5.58
same,TGI,[6]; TK-10,2.65 µM
same,Mean Optical Densities,"[6]; TK-10, Log10 conc -4.0 Moles/L",0.101
same,Percent Growth,"[6]; TK-10, Log10 conc -4.0 Moles/L",−89%
same,Mean Optical Densities,"[6]; TK-10, Log10 conc -5.0 Moles/L",0.087
same,Percent Growth,"[6]; TK-10, Log10 conc -5.0 Moles/L",−90%
same,Mean Optical Densities,"[6]; TK-10, Log10 conc -6.0 Moles/L",1.283
same,Percent Growth,"[6]; TK-10, Log10 conc -6.0 Moles/L",66%
same,Mean Optical Densities,"[6]; TK-10, Log10 conc -7.0 Moles/L",1.389
same,Percent Growth,"[6]; TK-10, Log10 conc -7.0 Moles/L",85%
same,Mean Optical Densities,"[6]; TK-10, Log10 conc -8.0 Moles/L",1.449
same,Percent Growth,"[6]; TK-10, Log10 conc -8.0 Moles/L",96%
same,CC50,"[7]; UO-31, read-out: LC50",5.03 µM
same,CC50,"[7]; UO-31, read-out: Log10 LC50 (converted)",5.01 µM
same,GI50,"[7]; UO-31, read-out: GI50",1200 nM
same,GI50,"[7]; UO-31, read-out: Log10 GI50 (converted)",1200 nM
same,Log10 TGI,[7]; UO-31,−5.61
same,TGI,[7]; UO-31,2.45 µM
same,Mean Optical Densities,"[7]; UO-31, Log10 conc -4.0 Moles/L",0.039
same,Percent Growth,"[7]; UO-31, Log10 conc -4.0 Moles/L",−87%
same,Mean Optical Densities,"[7]; UO-31, Log10 conc -5.0 Moles/L",0.006
same,Percent Growth,"[7]; UO-31, Log10 conc -5.0 Moles/L",−98%
same,Mean Optical Densities,"[7]; UO-31, Log10 conc -6.0 Moles/L",0.833
same,Percent Growth,"[7]; UO-31, Log10 conc -6.0 Moles/L",63%
same,Mean Optical Densities,"[7]; UO-31, Log10 conc -7.0 Moles/L",1.056
same,Percent Growth,"[7]; UO-31, Log10 conc -7.0 Moles/L",89%
same,Mean Optical Densities,"[7]; UO-31, Log10 conc -8.0 Moles/L",1.076
same,Percent Growth,"[7]; UO-31, Log10 conc -8.0 Moles/L",91%
